Marks after values point to notes of the source that are not given here.
Assays:
[1] = target: T1, Vitronectin Receptor (αVβ3) (Homo sapiens, UniProt P05106+P06756); test: Vitronectin Receptor (αVβ3) Binding Test Procedure; settings: for remaining activity at 30 µM: % Max = percentage of the specific binding, read-out: (αVβ3) RECEPTOR BINDING, % @ concentration
T1 construct: expressed in transfected cells; host or cells: 512P5 cells (plasma membrane preparation)

osteoclasts = test: Osteoclast Bone Pitting; assay type: cell-based, rat
Method in brief: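 Osteoclasts on bone slices at an acidic pH promoting resorption; slices fixed, osteoclasts counted after TRAP staining, cells stripped by sonication in 0.25M NH4OH and toluidine blue-stained pits counted manually. Block design, three replicate slices per treatment per animal; IC50 from dose-response curves.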

[2] = test system: thyro-parathyroidectomized (TPTX) rats; test: PTH-induced Hypercalcemia of Thyro-parathyroidectomized Male Rats; assay type: in vivo, rat; settings: for Change in Serum Calcium after 3 hours / Change in Serum Calcium after 6 hours: Table V, TPTX male rats, rPTH(1-34) 0.45 μg/kg/hr, Example 37 100 mg/kg, s.c.
Source text: Effects of Test Compounds on PTH-induced Hypercalcemia of Thyro-parathyroidectomized Male Rats. Male thyro-parathyroidectomized (TPTX) rats (Charles River) were randomly assigned to groups of 7 rats/group. […] For evaluation of prophylactic effects of a test drug, another minipump with appropriate concentration of the test drug solution was implanted subcutaneously at a site away from PTH minipump or implanted as a pellet of the test compound away from the PTH minipump. Alternatively, test drugs were administered by oral gavage as a solution or uniform suspension in an appropriate medium depending on the physical properties of the test compound. A group of 7 unimplanted TPTX rats was set aside as a normal control group.

αVβ3 integrin = target: T2, αVβ3 integrin (Homo sapiens, UniProt P05106+P06756); test: Osteopontin-αVβ3 Cell Attachment Test Procedure; assay type: cell-based; settings: for remaining activity at 20 µM / remaining activity at 100 µM: % of maximal attachment, read-out: (αVβ3) CELL ATTACHMENT, % @ concentration
T2 construct: αVβ3-expressing cell lines are maintained by standard tissue culture techniques; endogenous in cells; host or cells: αVβ3-expressing cell lines
T2 sequence (P06756 31-889 limits assumed): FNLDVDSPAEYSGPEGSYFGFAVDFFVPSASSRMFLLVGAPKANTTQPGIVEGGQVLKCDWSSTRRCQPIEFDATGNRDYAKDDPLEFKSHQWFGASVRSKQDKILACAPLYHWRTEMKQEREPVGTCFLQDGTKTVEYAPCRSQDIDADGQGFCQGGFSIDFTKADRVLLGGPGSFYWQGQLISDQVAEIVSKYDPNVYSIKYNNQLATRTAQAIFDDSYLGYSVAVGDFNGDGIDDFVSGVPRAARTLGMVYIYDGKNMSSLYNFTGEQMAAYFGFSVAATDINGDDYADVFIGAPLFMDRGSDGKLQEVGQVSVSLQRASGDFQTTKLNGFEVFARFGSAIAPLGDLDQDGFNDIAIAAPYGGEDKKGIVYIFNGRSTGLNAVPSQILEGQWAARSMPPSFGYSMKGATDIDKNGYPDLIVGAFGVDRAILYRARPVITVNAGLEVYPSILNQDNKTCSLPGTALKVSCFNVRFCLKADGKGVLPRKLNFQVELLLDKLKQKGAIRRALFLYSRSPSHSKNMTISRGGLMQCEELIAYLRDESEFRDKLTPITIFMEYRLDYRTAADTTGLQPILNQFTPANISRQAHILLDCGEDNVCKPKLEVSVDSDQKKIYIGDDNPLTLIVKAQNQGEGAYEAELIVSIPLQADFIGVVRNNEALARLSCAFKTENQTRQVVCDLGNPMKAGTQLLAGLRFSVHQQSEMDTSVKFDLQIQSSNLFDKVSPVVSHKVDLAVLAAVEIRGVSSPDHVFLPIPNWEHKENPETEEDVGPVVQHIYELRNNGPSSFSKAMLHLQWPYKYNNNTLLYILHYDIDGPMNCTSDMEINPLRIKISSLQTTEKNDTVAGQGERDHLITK
T2 sequence (P06756 891-1048 partner limits assumed): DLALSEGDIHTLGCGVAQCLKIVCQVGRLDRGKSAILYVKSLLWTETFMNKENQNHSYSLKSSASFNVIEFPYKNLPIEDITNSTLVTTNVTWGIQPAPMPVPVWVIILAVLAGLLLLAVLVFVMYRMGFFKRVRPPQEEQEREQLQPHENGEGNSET
T2 sequence (P05106 27-788): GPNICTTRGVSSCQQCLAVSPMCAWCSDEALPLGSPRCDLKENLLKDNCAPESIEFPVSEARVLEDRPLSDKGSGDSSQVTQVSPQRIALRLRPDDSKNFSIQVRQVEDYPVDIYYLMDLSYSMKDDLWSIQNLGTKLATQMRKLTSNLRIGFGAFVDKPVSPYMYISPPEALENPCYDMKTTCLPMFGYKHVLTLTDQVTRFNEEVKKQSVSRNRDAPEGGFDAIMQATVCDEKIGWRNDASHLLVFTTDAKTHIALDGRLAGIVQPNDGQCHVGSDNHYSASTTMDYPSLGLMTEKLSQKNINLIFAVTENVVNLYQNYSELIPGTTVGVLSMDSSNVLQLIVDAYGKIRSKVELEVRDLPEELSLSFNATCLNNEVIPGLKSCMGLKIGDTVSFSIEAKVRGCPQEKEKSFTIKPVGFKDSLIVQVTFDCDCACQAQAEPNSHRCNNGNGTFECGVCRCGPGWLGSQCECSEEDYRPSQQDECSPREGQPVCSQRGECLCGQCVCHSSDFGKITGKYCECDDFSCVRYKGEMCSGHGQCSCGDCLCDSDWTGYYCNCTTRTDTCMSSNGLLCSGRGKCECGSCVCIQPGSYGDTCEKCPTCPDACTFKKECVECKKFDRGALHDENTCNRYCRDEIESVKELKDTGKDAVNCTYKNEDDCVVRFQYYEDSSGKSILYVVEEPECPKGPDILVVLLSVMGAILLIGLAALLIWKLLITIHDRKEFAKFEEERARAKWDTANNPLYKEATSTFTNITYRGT
Method in brief: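 Cells expressing αVβ3 (10^6 cells/mL) added with test compound to osteopontin-coated, 1% BSA-blocked wells in triplicate; 1.5 h at 25° C. Attached cells quantified by MTT dye conversion (overnight, 37° C.); optical density expressed as % of maximal attachment minus uncoated-well background, mean ±SD.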

αIIbβ3 integrin = target: T3, αIIbβ3 integrin (Homo sapiens, UniProt P05106+P08514); test: ADP-Induced Platelet Aggregation; assay type: cell-based; settings: Table VII; for IC50: ADP 20 uM, human platelets, read-out: Platelet Aggregation αIIbβ3 IC50
T3 construct: Human Platelets: Platelet-enriched plasma was obtained commercially from a donor pool; from tissue; host or cells: human platelet-rich plasma from a commercial donor pool
T3 sequence (P08514 32-887 limits assumed): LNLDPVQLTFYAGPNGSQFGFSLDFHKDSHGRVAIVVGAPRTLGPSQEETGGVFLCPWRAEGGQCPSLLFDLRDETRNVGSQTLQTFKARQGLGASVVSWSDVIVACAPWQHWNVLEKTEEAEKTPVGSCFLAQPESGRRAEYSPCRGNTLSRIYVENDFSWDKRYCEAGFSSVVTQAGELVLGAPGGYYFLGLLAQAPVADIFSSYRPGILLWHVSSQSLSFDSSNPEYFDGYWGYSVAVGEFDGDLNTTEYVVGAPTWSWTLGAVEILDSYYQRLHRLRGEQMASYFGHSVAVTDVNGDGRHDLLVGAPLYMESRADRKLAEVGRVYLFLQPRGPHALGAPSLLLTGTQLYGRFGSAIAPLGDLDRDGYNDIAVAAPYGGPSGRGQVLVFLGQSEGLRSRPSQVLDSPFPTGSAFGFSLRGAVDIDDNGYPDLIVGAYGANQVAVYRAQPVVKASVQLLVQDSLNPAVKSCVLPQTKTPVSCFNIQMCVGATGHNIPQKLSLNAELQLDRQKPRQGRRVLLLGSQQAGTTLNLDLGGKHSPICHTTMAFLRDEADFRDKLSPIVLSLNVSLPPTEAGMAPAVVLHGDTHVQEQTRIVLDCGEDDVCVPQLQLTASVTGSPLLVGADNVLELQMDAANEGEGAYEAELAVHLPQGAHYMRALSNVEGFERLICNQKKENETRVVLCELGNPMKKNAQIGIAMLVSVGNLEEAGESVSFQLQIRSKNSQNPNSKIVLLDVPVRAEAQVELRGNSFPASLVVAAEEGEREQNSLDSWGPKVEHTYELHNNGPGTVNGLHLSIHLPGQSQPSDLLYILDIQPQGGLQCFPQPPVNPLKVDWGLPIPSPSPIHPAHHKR
T3 sequence (P08514 891-1039 partner limits assumed): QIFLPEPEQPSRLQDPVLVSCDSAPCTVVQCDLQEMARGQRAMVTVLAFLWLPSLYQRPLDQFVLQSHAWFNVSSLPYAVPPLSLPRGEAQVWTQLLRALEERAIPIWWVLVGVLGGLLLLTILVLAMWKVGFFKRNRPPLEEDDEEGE
T3 sequence (P05106 27-788): as the sequence (P05106 27-788) above
Method in brief: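 Pooled human PRP ([…]) preincubated with compound (1% vehicle) 5 min at 37° C with stirring, then stimulated with 20 uM ADP. Light transmittance followed 5 min against PPP reference; maximal aggregation expressed as % of vehicle control, mean ± SD.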

[3] = @200 μM, percent of maximal aggregation

T1 sequence (P06756 31-889 limits assumed): as the sequence (P06756 31-889 limits assumed) above
T1 sequence (P06756 891-1048 partner limits assumed): as the sequence (P06756 891-1048 partner limits assumed) above
T1 sequence (P05106 27-788): as the sequence (P05106 27-788) above

**Q.** Which results are given for `N=C(N)NCCCOc1ccc2c(c1)CCC(CC(=O)O)C2.O=C(O)C(F)(F)F` (centres unmarked) [Example 37, [6-(3-Guanidino-propoxy)-1,2,3,4-tetrahydro-napthalen-2-yl]-acetic Acid Trifluoroacetate]?
**A.** IC50 ([1]; read-out: (αVβ3) IC50 RECEPTOR BINDING): 2.9 µM; BONE PITTING INHIBITION (osteoclasts; @ 238 μM): 30% @ 238; Change in Serum Calcium after 3 hours ([2]; 1st column pair): 1.72 mg/dL; Change in Serum Calcium after 6 hours ([2]; 1st column pair): 2.22 mg/dL; Change in Serum Calcium after 3 hours ([2]; 2nd column pair): 0.97 mg/dL; Change in Serum Calcium after 6 hours ([2]; 2nd column pair): 2.21 mg/dL; Change in Serum Calcium after 3 hours ([2]; 3rd column pair): 0.95 mg/dL; Change in Serum Calcium after 6 hours ([2]; 3rd column pair): 1.80 mg/dL; Change in Serum Calcium after 3 hours ([2]; 4th column pair): 1.31 mg/dL; Change in Serum Calcium after 6 hours ([2]; 4th column pair): 1.63 mg/dL; IC50 (αVβ3 integrin; attachment of cells to osteopontin, read-out: (αVβ3) IC50 CELL ATTACHMENT): 8.9 µM; IC50 (αIIbβ3 integrin): 82.4 µM

**Q.** For `N=C(N)NCCCCOc1ccc2c(c1)CC(CCC(=O)O)C(=O)N2` (centres unmarked) [Example 224, 3-[6-(4-Guanidino-butoxy)-2-oxo-1,2,3,4-tetrahydro-quinolin-3-yl]-propionic Acid], which remaining activity at 30 µM [1] is on record?
**A.** Its remaining activity at 30 µM is 100%.

**Q.** And the inhibition at 216 µM (osteoclasts; Rattus norvegicus, Osteoclast)?
**A.** The inhibition at 216 µM was -62%.

**Q.** And the melting point?
**A.** The melting point was 152 to 155 °C.

**Q.** And the remaining activity at 20 µM (αVβ3 integrin)?
**A.** Its remaining activity at 20 µM is 100%.

**Q.** What about the IC50 (αIIbβ3 integrin) of the same compound?
**A.** The IC50 was 53 µM.

**Q.** What does the source list for `N=C(N)NCCCCOc1ccc2c(c1)NC(=O)C(CCC(=O)O)C2` (centres unmarked) [Example 232, 3-[7-(4-Guanidino-butoxy)-2-oxo-1,2,3,4-tetrahydro-quinolin-3-yl]-propionic Acid]?
**A.** remaining activity at 30 µM [1]: 75.3%; inhibition at 216 µM (osteoclasts; Rattus norvegicus, Osteoclast): -70%; melting point: 176 to 177 °C; remaining activity at 100 µM (αVβ3 integrin): 97%; IC50 (αIIbβ3 integrin): 155 µM

**Q.** With `N=C(N)NCCCOc1cccc2c1NC(=O)C(CC(=O)O)C2` (centres unmarked) [Example 234, [8-(3-Guanidino-propoxy)-2-oxo-1,2,3,4-tetrahydro-quinolin-3-yl]-acetic Acid] as the compound, how does the remaining activity at 30 µM [1] read?
**A.** Its remaining activity at 30 µM is 100%.

**Q.** What about the inhibition at 230 µM (osteoclasts; Rattus norvegicus, Osteoclast, @ 230 μM) of the same compound?
**A.** Its inhibition at 230 µM is 8%.

**Q.** What about the melting point of the same compound?
**A.** Its melting point is 151 to 155 °C.

**Q.** What about the remaining activity at 100 µM (αVβ3 integrin) of the same compound?
**A.** Its remaining activity at 100 µM is 85%.

**Q.** And the remaining activity at 200 µM (αIIbβ3 integrin; [3])?
**A.** The remaining activity at 200 µM was 74.3%.

**Q.** Which remaining activity at 30 µM [1] does the source give for `N=C(N)NCCCCOc1cccc2c1NC(=O)C(CC(=O)O)C2` (centres unmarked) [Example 235, [8-(4-Guanidino-butoxy)-2-oxo-1,2,3,4-tetrahydro-quinolin-3-yl]-acetic Acid] here?
**A.** The remaining activity at 30 µM was 100%.

**Q.** What about the inhibition at 221 µM (osteoclasts; Rattus norvegicus, Osteoclast, @ 221 μM) of the same compound?
**A.** Its inhibition at 221 µM is -50%.

**Q.** What about the melting point of the same compound?
**A.** The melting point was 207 to 210 °C.

**Q.** What about the remaining activity at 100 µM (αVβ3 integrin) of the same compound?
**A.** Its remaining activity at 100 µM is 91%.

**Q.** What about the remaining activity at 200 µM (αIIbβ3 integrin; [3]) of the same compound?
**A.** The remaining activity at 200 µM was 81.1%.

**Q.** For `N=C(N)NCCCOc1ccc2cc(CC(=O)O)c(=O)n(Cc3ccccc3)c2c1.O=C(O)C(F)(F)F` [Example 239, [1-Benzyl-7-(3-guanidino-propoxy)-2-oxo-1,2-dihydro-quinolin-3-yl]-acetic Acid Trifluoroacetic Acid Salt], which remaining activity at 30 µM [1] is on record?
**A.** The remaining activity at 30 µM was 70%.

**Q.** And the inhibition at 19.1 µM (osteoclasts; Rattus norvegicus, Osteoclast, @ 19.1 μM)?
**A.** Its inhibition at 19.1 µM is 33%.

**Q.** What about the melting point of the same compound?
**A.** Its melting point is 132 to 134 °C.

**Q.** And the remaining activity at 20 µM (αVβ3 integrin)?
**A.** The remaining activity at 20 µM was 99.7%.

**Q.** What about the remaining activity at 100 µM (αVβ3 integrin) of the same compound?
**A.** The remaining activity at 100 µM was 67.5%.

**Q.** And the “Percent of Maximal” value (αIIbβ3 integrin; [3])?
**A.** Its value is 83.7@200%.

**Q.** With Cyclo(-Arg-Gly-Asp-D-Phe-Val) as the compound, how does the “Change in Serum Calcium (mg/dL)” value ([2]; Table III, TPTX rat, 100 mg/kg.sc) read?
**A.** The value was −0.90 + 0.28 mg/dL.

**Q.** And the “Change in Serum Calcium after 3 hours” value ([2]; 1st column pair)?
**A.** Its value is 0.69 mg/dL.

**Q.** What about the “Change in Serum Calcium after 6 hours” value ([2]; 1st column pair) of the same compound?
**A.** Its value is 1.20* mg/dl.

**Q.** And the “Change in Serum Calcium after 3 hours” value ([2]; 2nd column pair)?
**A.** The value was 0.58** mg/dl.

**Q.** What about the “Change in Serum Calcium after 6 hours” value ([2]; 2nd column pair) of the same compound?
**A.** Its value is 1.44* mg/dl.

**Q.** What about the “Change in Serum Calcium after 3 hours” value ([2]; 3rd column pair) of the same compound?
**A.** The value was 0.01** mg/dl.

**Q.** And the “Change in Serum Calcium after 6 hours” value ([2]; 3rd column pair)?
**A.** Its value is 0.63 mg/dL.

**Q.** And the “Change in Serum Calcium after 3 hours” value ([2]; 4th column pair)?
**A.** Its value is 0.51** mg/dl.

**Q.** What about the “Change in Serum Calcium after 6 hours” value ([2]; 4th column pair) of the same compound?
**A.** The value was 1.07 mg/dL.
